This passage reports IC50 results from patent publication US6506760B1, “Substituted hydrazinyl heteroaromatic inhibitors of thrombin” (Corvas International, Inc., priority 2000, dated 2003).

Where two headings read alike, the source gives them in different places. Some results are limits rather than exact numbers.

What all share (type): biochemical
One assay has as its target human α-thrombin (Homo sapiens, UniProt P00734). The assay is described as follows: Thrombin (fIIa) chromogenic assay, IC50.
The target in assay [1] is T1, bovine pancreatic trypsin (Bos taurus, UniProt P00760).
T1 construct: bovine pancreatic trypsin was obtained from Worthington Biochemical Corp; purchased Worthington Biochemical Corp. TRL3; host or cells: bovine pancreas
T1 sequence (P00760 24-246): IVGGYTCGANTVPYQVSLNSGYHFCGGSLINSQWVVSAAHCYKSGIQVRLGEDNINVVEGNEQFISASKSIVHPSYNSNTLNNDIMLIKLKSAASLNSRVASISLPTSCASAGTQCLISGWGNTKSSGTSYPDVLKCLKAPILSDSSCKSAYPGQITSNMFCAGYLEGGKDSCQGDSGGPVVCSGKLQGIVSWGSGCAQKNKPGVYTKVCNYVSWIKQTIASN
The assay is described as follows: Trypsin chromogenic assay, IC50. The conditions noted are these: 30 min incubation. How it is done:
(§1) The ability of compounds of the present invention to act as a selective inhibitor of thrombin activity was assessed by determining the concentration of test-compound which inhibited the activity of this enzyme by 50%, (IC50), and comparing this value to that determined for all or some of the following related serine proteases: recombinant tissue plasminogen activator (rt-PA), plasmin, activated protein C, chymotrypsin, factor Xa and trypsin.
(§2) The buffer used for all assays was HBSA (10 mM HEPES, pH 7.5, 150 mM sodium chloride, 0.1% bovine serum albumin).
(§3) The assay for IC50 determinations was conducted by combining in appropriate wells of a Corning microtiter plate, 50 microliters of HBSA, 50 microliters of the test compound at a specified concentration (covering a broad concentration range) diluted in HBSA (or HBSA alone for V0 (uninhibited velocity) measurement), and 50 microliters of the enzyme diluted in HBSA. Following a 30 minute incubation at ambient temperature, 50 microliters of the substrate at the concentrations specified below were added to the wells, yielding a final total volume of 200 microliters. The initial velocity of chromogenic substrate hydrolysis was measured by the change in absorbance at 405 nm using a Thermo Max® Kinetic Microplate Reader over a 5 minute period in which less than 5% of the added substrate was utilized. The concentration of added inhibitor which caused a 50% decrease in the initial rate of hydrolysis was defined as the IC50 value.
Trypsin catalytic activity was determined using the chromogenic substrate, S-2222 (benzoyl-L-isoleucine-L-glutamic acid-[gamma-methyl ester]-L-arginine-p-nitroanilide), which was obtained from DiaPharma Group. […] Purified (3×-crystallized; TRL3) bovine pancreatic trypsin was obtained from Worthington Biochemical Corp. The enzyme was reconstituted in deionized water and diluted into HBSA prior to assay in which the final concentration was 0.5 nM.

The target of the next assay is human plasmin (Homo sapiens, UniProt P00747). Put plainly: Plasmin chromogenic assay, IC50. The conditions noted are these: 30 min incubation. As for the experimental part: as §1, §2, §3
Plasmin catalytic activity was determined using the chromogenic substrate, S-2366 [L-pyroglutamyl-L-prolyl-L-arginine-p-nitroaniline hydrochloride], which was obtained from DiaPharma group. The substrate was made up in deionized water followed by dilution in HBSA prior to the assay in which the final concentration was 300 micromolar (about 2.5-times Km). Purified human plasmin was obtained from Enzyme Research Laboratories, Inc. The enzyme was diluted into HBSA prior to assay in which the final concentration was 1.0 nM.

A further assay concerns the target T2, Factor Xa (Homo sapiens, UniProt P00742).
T2 construct: purchased Enzyme Research Laboratories, Inc. (South Bend, Ind.)
The assay is described as follows: Factor Xa chromogenic assay, IC50. The conditions noted are these: 30 min incubation; read-out: fxa IC50 (30 min). As for the experimental part:
as §1, §2, §3
Factor Xa catalytic activity was determined using the chromogenic substrate S-2765 (N-benzyloxycarbonyl-D-arginine-L-glycine-L-arginine-p-n itroaniline ), obtained from DiaPharma Group (Franklin, Ohio). All substrates were reconstituted in deionized water prior to use. […] Purified human Factor X was obtained from Enzyme Research Laboratories, Inc. (South Bend, Ind.) and Factor Xa (FXa) was activated and prepared from it as described [Bock, P. E., Craig, P. A., Olson, S. T., and Singh, P. Arch, Biochem. Biophys, 273:375-388 (1989)]. The enzyme was diluted into HBSA prior to assay in which the final concentration was 0.25 nM.

The mark [2] stands for this setting: 0 min incubation of enzyme with inhibitor, read-out: fIIa IC50 (0 min).
Setting [3] is: 30 min incubation of enzyme with inhibitor, read-out: fIIa IC50 (30 min).

Sequence of human plasmin (P00747 581-810 limits assumed): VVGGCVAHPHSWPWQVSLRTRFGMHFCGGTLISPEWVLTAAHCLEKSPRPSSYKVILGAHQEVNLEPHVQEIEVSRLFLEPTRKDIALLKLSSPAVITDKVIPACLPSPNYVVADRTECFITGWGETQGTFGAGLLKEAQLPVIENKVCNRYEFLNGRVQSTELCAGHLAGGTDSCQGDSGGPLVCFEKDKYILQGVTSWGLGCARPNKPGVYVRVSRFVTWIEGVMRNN
Sequence of human plasmin (P00747 97-580 partner limits assumed): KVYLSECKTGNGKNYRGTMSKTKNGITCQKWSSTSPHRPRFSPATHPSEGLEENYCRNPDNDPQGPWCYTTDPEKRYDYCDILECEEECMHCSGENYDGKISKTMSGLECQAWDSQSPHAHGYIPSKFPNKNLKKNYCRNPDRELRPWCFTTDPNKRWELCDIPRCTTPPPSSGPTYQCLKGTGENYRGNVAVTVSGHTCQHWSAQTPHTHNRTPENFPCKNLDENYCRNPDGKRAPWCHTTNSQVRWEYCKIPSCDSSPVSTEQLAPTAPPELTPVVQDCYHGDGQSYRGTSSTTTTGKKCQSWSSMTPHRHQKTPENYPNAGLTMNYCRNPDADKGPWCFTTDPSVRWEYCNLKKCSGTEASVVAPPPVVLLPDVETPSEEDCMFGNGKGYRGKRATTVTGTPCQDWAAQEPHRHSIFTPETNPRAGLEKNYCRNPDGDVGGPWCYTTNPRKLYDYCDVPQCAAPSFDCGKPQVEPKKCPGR
T2 sequence (P00742 235-488 limits assumed): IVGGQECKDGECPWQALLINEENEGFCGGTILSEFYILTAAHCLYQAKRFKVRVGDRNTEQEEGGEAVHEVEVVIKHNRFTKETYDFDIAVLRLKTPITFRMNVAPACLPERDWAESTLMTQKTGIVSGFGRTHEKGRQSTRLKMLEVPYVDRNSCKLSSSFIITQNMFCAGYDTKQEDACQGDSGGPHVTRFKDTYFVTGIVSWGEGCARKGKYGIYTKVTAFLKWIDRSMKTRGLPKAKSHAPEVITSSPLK
T2 sequence (P00742 41-179 partner limits assumed): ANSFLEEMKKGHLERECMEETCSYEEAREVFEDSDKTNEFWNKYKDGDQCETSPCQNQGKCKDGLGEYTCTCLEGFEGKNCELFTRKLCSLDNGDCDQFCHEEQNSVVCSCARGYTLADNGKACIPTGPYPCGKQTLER

On to “1-[5-(2-Amino-6-methylpyridyl)methylcarboxamidomethyl]-3-[2-(2-chlorobenzenesulfonyl)hydrazino]-6-methylpyrazinone, Hydrotrifluoroacetate [Example 53]”, for which the IC50 (in general, the concentration at which inhibition is half-maximal) on human α-thrombin (setting [2]) was not above 100 nM; at human α-thrombin (setting [3]) it was not above 100 nM; in assay [1], 2.5 to 100 µM; on human plasmin, not below 100 µM; at Factor Xa it was 2.5 to 100 µM.
With `Cc1nc(N)ccc1CNC(=O)Cn1c(C)cnc(NNC(=O)NCc2ccc(Cl)cc2)c1=O` [Example 37, 1-[5-(2-Amino-6-methylpyridyl)methylcarboxamidomethyl]-3-[2-(4-chlorobenzylcarbamyl)hydrazino]-6-methylpyrazinone, Hydrotrifluoroacetate], the IC50 on human α-thrombin (setting [2]) was not above 100 nM; on human α-thrombin (setting [3]) it was not above 100 nM; in assay [1], not below 100 µM; at human plasmin, not below 100 µM; on Factor Xa, not below 100 µM.
Regarding `Cc1nc(N)ccc1CNC(=O)Cn1c(C)cnc(NNS(=O)(=O)c2ccccc2C(F)(F)F)c1=O` [Example 45, 1-[5-(2-Amino-6-methylpyridyl)methylcarboxamidomethyl]-6-methyl-3-[2-(2-trifluoromethylbenzenesulfonyl)hydrazino]pyrazinone, Hydrotrifluoroacetate], the concentration for half-maximal inhibition (IC50) on human α-thrombin (setting [2]) was not above 100 nM; at human α-thrombin (setting [3]) it was not above 100 nM; in assay [1], not below 100 µM; against human plasmin, not below 100 µM; on Factor Xa it was 2.5 to 100 µM.
For `C#CCOC(=O)NNc1ncc(C)n(CC(=O)NCc2ccc(N)nc2C)c1=O` [Example 30, 1-[5-(2-Amino-6-methylpyridyl)methylcarboxamidomethyl]-6-methyl-3-(2-propargyloxycarbonylhydrazino)pyrazinone, Hydrotrifluoroacetate], the 50% inhibitory concentration (IC50) at human α-thrombin (setting [2]) was not above 100 nM; on human α-thrombin (setting [3]) it was not above 100 nM; in assay [1], not below 100 µM; against human plasmin, not below 100 µM; on Factor Xa, not below 100 µM.
For the molecule `Cc1nc(N)ccc1CNC(=O)Cn1c(C)cnc(NNC(=O)NCCC(C)(C)C)c1=O` [Example 50, 1-[5-(2-Amino-6-methylpyridyl)methylcarboxamidomethyl]-6-methyl-3-[2-(3,3-dimethylbutylcarbamyl)hydrazino]pyrazinone, Hydrotrifluoroacetate], the IC50 at human α-thrombin (setting [2]) was not above 100 nM; on human α-thrombin (setting [3]) it was not above 100 nM; in assay [1], 2.5 to 100 µM; against human plasmin, not below 100 µM; on Factor Xa, 2.5 to 100 µM.
